Test [1] has as its target Opioid receptors; mu & delta (Rattus norvegicus) (UniProt P33533+P33535). In words: Selectivity ratio of rat delta opioid receptor over rat mu opioid receptor. The format is protein assay.
In test [2] the target is T1, Delta-type opioid receptor (Mus musculus, UniProt P32300). The experiment in a line: Displacement of deltorphin-II from delta opioid receptor in mouse vas deferens. The class given is functional. The following applies: read-out: pA2 (converted).
Test [3] concerns the target Mu-type opioid receptor (Rattus norvegicus, UniProt P33535). The experiment in a line: Displacement of [3H]DAMGO from mu opioid receptor in rat brain membrane. The class given is cell membranes. For orientation: Displacement assays read how much labelled ligand stays bound in the presence of the test substance.
Test [4] addresses Mu-type opioid receptor (Cavia porcellus, UniProt P97266). The experiment in a line: Agonistic activity against mu opioid receptor in guinea-pig ileum. The format is functional, tissue-based.
In test [5] the target is Delta-type opioid receptor (Rattus norvegicus, UniProt P33533). The experiment in a line: Displacement of [3H]deltorphin II from delta opioid receptor in rat brain membrane. The class given is cell membranes.
Test [6] addresses T1, Delta-type opioid receptor. In words: Agonistic activity at delta opioid receptor in mouse vas deferens. The class given is functional, tissue-based.

pIC50, pKi: −log10 of the molar value. Square brackets hold non-standard residues; d marks the D form. Peptide text beside a SMILES is read from it. Dmt = Cc1cc(O)cc(C)c1C[C@H](N)C(=O)O; Tic = O=C(O)[C@@H]1Cc2ccccc2CN1

Sequence of Mu-type opioid receptor (Cavia porcellus, UniProt P97266) (P97266 whole entry): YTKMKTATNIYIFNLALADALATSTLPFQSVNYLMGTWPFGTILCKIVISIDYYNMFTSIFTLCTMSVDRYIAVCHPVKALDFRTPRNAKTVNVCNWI
Sequence of Opioid receptors; mu & delta (Rattus norvegicus) (P33533 whole entry, looked up): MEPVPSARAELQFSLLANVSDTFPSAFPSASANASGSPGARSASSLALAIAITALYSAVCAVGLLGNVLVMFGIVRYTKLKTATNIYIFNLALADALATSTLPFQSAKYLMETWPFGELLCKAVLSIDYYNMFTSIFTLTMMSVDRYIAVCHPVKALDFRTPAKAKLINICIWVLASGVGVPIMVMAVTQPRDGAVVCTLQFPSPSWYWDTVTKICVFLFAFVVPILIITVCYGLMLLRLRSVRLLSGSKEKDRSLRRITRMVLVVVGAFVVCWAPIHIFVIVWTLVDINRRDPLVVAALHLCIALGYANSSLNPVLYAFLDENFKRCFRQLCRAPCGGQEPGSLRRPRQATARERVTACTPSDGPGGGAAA
Sequence of Opioid receptors; mu & delta (Rattus norvegicus) (P33535 whole entry, looked up): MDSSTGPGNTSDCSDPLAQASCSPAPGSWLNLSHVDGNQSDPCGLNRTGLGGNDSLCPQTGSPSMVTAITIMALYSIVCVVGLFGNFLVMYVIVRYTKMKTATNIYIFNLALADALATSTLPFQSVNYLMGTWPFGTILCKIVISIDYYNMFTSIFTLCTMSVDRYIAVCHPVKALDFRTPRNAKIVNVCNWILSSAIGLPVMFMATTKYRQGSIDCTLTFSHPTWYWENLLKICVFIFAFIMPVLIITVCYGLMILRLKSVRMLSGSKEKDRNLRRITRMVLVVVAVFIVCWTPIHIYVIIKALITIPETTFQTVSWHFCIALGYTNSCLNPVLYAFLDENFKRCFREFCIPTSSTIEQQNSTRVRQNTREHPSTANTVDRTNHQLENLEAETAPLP
Sequence of Delta-type opioid receptor (Rattus norvegicus, UniProt P33533) (P33533 whole entry): as the sequence (P33533 whole entry, looked up) above
T1 sequence (P32300 whole entry): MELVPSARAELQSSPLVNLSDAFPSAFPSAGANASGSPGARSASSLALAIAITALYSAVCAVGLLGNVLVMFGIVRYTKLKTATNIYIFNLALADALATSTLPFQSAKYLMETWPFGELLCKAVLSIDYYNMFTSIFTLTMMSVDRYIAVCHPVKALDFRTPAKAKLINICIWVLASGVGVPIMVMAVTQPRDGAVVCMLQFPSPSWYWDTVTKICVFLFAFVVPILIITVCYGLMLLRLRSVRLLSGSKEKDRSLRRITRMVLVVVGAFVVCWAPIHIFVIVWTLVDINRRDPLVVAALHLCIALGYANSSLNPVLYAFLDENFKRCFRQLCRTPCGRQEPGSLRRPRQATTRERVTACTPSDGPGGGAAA
Sequence of Mu-type opioid receptor (Rattus norvegicus, UniProt P33535) (P33535 whole entry): as the sequence (P33535 whole entry, looked up) above

`Cc1cc(O)cc(C)c1C[C@H](N)C(=O)N1Cc2ccccc2CC1C(=O)NCCCCCCNC(=O)C1Cc2ccccc2CN1` (some centres undefined): the Ratio Ki in test [1] stood at 22. The Kb in test [2] is 0.0398 nM. The pKi in test [3] is 8.55; in test [5] it was 9.89. In addition, the pIC50 in test [4] is 5.80; in test [6], less than 5.00.

Take `Cc1cc(O)cc(C)c1C[C@H](N)C(=O)NCCCCCCNC(=O)C1Cc2ccccc2CN1C(=O)[C@@H](N)Cc1c(C)cc(O)cc1C` (some centres undefined): the Ratio Ki in test [1] came to 2. The Kb in test [2] was 0.0631 nM. The pKi in test [3] was 9.42; in test [5], 9.64. Further, the pIC50 is 5.23 in test [4] and less than 5.00 in test [6].

Regarding `Cc1cc(O)cc(C)c1C[C@H](N)C(=O)N1Cc2ccccc2C[C@H]1C(=O)O` (H-[Dmt]-[Tic]-OH), the Kb in test [2] was 3.16 nM.

As to `Cc1cc(O)cc(C)c1C[C@H](N)C(=O)N1Cc2ccccc2CC1C(=O)NCCCCCCNC(=O)[C@@H](N)Cc1ccccc1` (some centres undefined), in test [1], the Ratio Ki turned out to be 2. The Kb in test [2] was 0.0501 nM. Moreover, the values for the pKi in test [3] and in test [5] were 8.72 and 9.05, respectively. For the same molecule, the pIC50 in test [4] is 5.26; in test [6], less than 5.00.

As usually defined, the pKi is the Ki on a negative log10 scale, so that one unit is a factor of ten. Read a high pKi as a low Ki. The pIC50 is the negative decadic logarithm of the IC50, by convention in mol/L. Read a high pIC50 as a low IC50.

The values above are taken from ChEMBL document CHEMBL1141239, “New series of potent delta-opioid antagonists containing the H-Dmt-Tic-NH-hexyl-NH-R motif” (Bioorg Med Chem Lett, 2005).
